Experimental data reported in US20210332396A1, “GENETIC ELEMENTS IN ENTEROCOCCUS SPP. TO PRODUCE DOPAMINE” (Iowa State University Research Foundation, Inc., priority 2018, published 2021).

Legend:
E. faecium strain ML1082 = test: Inhibition of dopamine production of strain ML1082 by Carbidopa in sSIM; assay type: cell-based, Enterococcus faecium
Protocol: To further verify the strains were producing dopamine from L-DOPA, Carbidopa, an inhibitor of dopamine production through L-DOPA decarboxylation, was added to sSIM. […] A functional approximation of the ICso for dopamine was calculated to be 1.53E^−3. The IC50 was similar to the L-DOPA concentration of the broth, 1.26 mM, a finding that may indicate a competitive inhibitory mechanism for the bacterial enzyme.

[1] = cited from earlier work

Question: For `C[C@@](Cc1ccc(O)c(O)c1)(NN)C(=O)O` [Carbidopa], which “inhibition of dopamine production (in words)” value (E. faecium strain ML1082) is on record?
Answer: Its value is “dose-dependent inhibition”.

Question: Which results are given for `NCCc1ccc(O)c(O)c1` [dopamine]?
Answer: half-life of auto-oxidation ([1]; pH of 5.6): 324 h; reaction rate for the auto-oxidation (k) ([1]; pH of 5.6): 0.000000591 s⁻¹; half-life of oxidation ([1]; pH of 7.4): 4.95 min; oxidation rate ([1]; pH of 7.4): 0.000586 s⁻¹
